One series has as its system influenza A virus. In words: microbe, parasite or virus in culture. More on the design: species or system strain of influenza A1 virus. The note with it: concentration 1 %.
The nature of series [1]: Solubility in water and organic solvents. Format: physicochemical. The following applies: qualitative, solvents named.
Series [2] relates to invasion larvae of a root-knot nematode. In words: Nematocidal activity, laboratory test. In kind it is in vivo. The note with it: Meloidogyne javanica; 1% solution in water; 24 hrs; read-out: Larva death, % Tests laboratory. The method, then:
(§1) The process was carried out in manner similar to that described in Example 3. […] The insecticidal activity was tested in a manner similar to that described in Example 3. A nematocidal composition based on the compound.-was prepared which was its 1% solution in water. A nematocidal effect of the composition was tested in laboratory conditions to the invasion larvae of a root-knot nematode. For testing it, one drop of a suspension containing 100 invasion larvae of root-knot nematodes was placed onto the cover glasses having cells. Thereafter, one drop of the nematocidal composition of the invention was put thereto. One drop of distilled water instead of the test composition was placed into the control cell..The glasses with test and control cells were put on a moisten ashless filter of a Petri dish, and 24 hrs later the killed nematodes were registered. The tests were repeated three times. The nematocidal activity of the composition, according to the invention was tested in comparison with the known nematocidal preparation containing 0,0-dimethyl-0-2,2/dichlorovinyl/phosphate. The field tests were carried out at the 5 m^2 plots affected by tomato nematodes. For testing it, the plots were treated with the nematocidal composition of the invention and the known nematocidal composition.

Series [3] deals with leaves of tomatoes and cucumbers. As to the kind of experiment: Phytotoxicity of the nematocidal composition. The following applies: 1% solution in water. In kind it is in vivo.
For series [4], the system named is domestic flies. As to the kind of experiment: Insecticidal activity, laboratory test in gauze boxes. Format: in vivo. The note with it: 0.25% solution in 5% aqueous glucose solution; death rate estimated in 48 - 72 hours. Here is the method: An insecticidal composition based thereon, which was a 0.25% solution of this compound in a 5% aqueous glucose solution, was prepared. The laboratory and large-scale tests of the activity of an insecticidal composition of the invention was conducted on domestic flies. for laboratory tests into the gauze-made boxes (10x10 cm, 6 boxes), there were placed 6-7-day flies of both sexes by 50 individuals per each box. Into 5 boxes there were placed Petri dishes containing the insecticidal composition of the invention. The death rate of flies was estimated-in 48 - 72 hours. A Petri dish containing a 5% aqueous solution of glucose was placed into the control box. The insecticidal activity of the composition, according to the invention, was tested in comparison with a known insecticidal composition containing 0,0-dimethyl-/1-hydroay-2,2-trichloroethyl/phosphonate.

Series [5] deals with domestic flies. As to the kind of experiment: Insecticidal activity, large-scale test in living and industrial premises. In kind it is in vivo. The note with it: 0.25% solution with 5% glucose solution, 2-3 dishes per 20 m2; 72 hours. The method, then:
The large-scale tests of the activity of the insecticidal composition, according to the invention, was conducted on domestic flies in living and industrial premises. Petri dishes containing a 0.25% aqueous solution of the insecticide, according to the invention, added with a 5% glucose solution, were put at a rate of 2-3 dishes per 20 m2. The .activity of the composition of the invention was estimated by a direct count of dead insects in 72 hours or by using the adhesive tapes, counting the number of flies on the tape prior and after carrying out the test.

The subject of another series is tomato nematodes. In words: Nematocidal activity, field test on 5 m2 plots. The following applies: 1% solution in water, read-out: Larva death, % Tests field. In kind it is in vivo. Here is the method:
as §1

The next series deals with hepatitis B virus. In words: Virucidal activity, suspension method under protein loading, counter-current immunoelectrophoresis. The following applies: concentration 1 %.
For another series, the system named is pig ascarid ovigerms. In words: Ovocidal activity on watch glasses, 2% solution. In kind it is in vivo. The following applies: concentration 2 %. Here is the method:
An ovocidal composition based on this compound was prepared in the form of a 2% solution thereof in distilled water. An ovocidal activity of the composition, according to the invention, was tested as follows.
A drop of a suspension containing at least 1.000 ascarid ovigerms was placed onto the watch glasses followed by adding thereto by 1 ml of the composition of the invention. Thereafter the watch glasses were put them into a humid chamber of a thermostat at a temperature of 24 - 26 °C. In every […] the watch glasses with ascarid ovigerms and with the composition of the invention were withdrawn from the thermostat and washed with distilled water for 2-3 times.
Then, the washed ascaride ovigerms were cultured for 30 days at a temperature of 24 - 26 °C. To determine the number of dead and viable ovigerms 200 ova were visualized under a microscope in every 3-5 days. Their death was determined by lack of the development of ovigerms up to the stage of larva and the.presence of destructive morphological changes for 30 days. An ovocidal activity of known composition based.on carbathion was determined by the same procedure. Control was carried out under the same conditions by adding a physiological saly solution. The death percentage of ova was estimated as a mean value of three results with the correction for death of ovigerms in the control and in comparison with the known compositions.

In the next series the test system is poliomyelitis virus. As to the kind of experiment: microbe, parasite or virus in culture. In kind it is cell-based, poliomyelitis-II virus. The note with it: concentration 1 %.
In a further series the test system is pig ascaride ovigerms. In words: Ovocidal activity on watch glasses, 3% solution, laboratory test. In kind it is in vivo. The following applies: Sus scrofa, read-out: % Death of ovigerms Tests laboratory. Here is the method:
A drop of a suspension containing at least 1,000 ascarid ovigerms was placed onto watch glasses followed by adding one droplet of a 3% solution of the composition of the invention. Thereafter, they were put into a humid chamber of a thermostat at a temperature of 24-26 °C. In every 24 hours during 3 days the watch glasses with ascarid ova and the composition of the invention were withdrawn from the thermostat and washed with distilled water 2-3 times.
Then, the washed ascarid ovigerms were incubated for 30 days at a temperature of 24 - 26-°C. To determine the number of dead and viable ova, 200 ovigerms were observed by means of a microscope every 3 - 5 days. The death was determined by lack of ova development for 30 days up to the stage of a mobile larva and the presence of destructive morphological changes: shrinkage and deformation of embryos, rupture of shells. The known composition - carbathion was tested under the same conditions by adding a solvent. The percentage death of ova was estimated as a mean value of three results with a correction for ova death in the control and_in-comparison with the known composition.

In the next series the test system is helminthic ova. In words: Ovocidal activity, large-scale disinfection of ambient objects. The note with it: 3% aqueous solution; ambient objects (equipment, tableware, hands); read-out: % Death of ovigerms Tests large-scale. Here is the method: Based on this compound, there was prepared the ovocidal composition in the form of 3% solution thereof. The ovocidal activity of the composition, according to the invention, was tested disinfection of ambient objects (equipment, tableware, hands). For this purpose, a 3% aqueous solution of the compound, according to the invention, was used for treating said objects. The. efficiency of the ovocidal action was determined by the number of helminthic ova in washings from the ambient objects before and after treating them with the ovocidal composition of the invention.

The subject of a further series is mice and rats. The note with it: cited from earlier work.
Where [6] appears, read: 24 h, read-out: Death of ascarid ovigerms (%) in 24 h.
[7] abbreviates: 48 h, read-out: Death of ascarid ovigerms (%) in 48 h.

Where two headings read alike, the source gives them in different places.

As for `O=C(N=P(OC(CCl)c1ccccc1)(OC(CCl)c1ccccc1)OC(CCl)c1ccccc1)c1ccccc1` (stereo not drawn) [Example 3, tris/2-chloro-1-phenylethoxy/phosphazobenzoyl], the killing at 1 % with influenza A virus (0.25 h, 15 min, read-out: Death of viruses (%) under exposure, Influenza A, 15 min) turned out to be 30%; in the series with influenza A virus (0.5 h, 30 min, read-out: Death of viruses (%) under exposure, Influenza A, 30 min), 50%; in the series with influenza A virus (1 h, 60 min, read-out: Death of viruses (%) under exposure, Influenza A, 60 min), 100%; in [2], 100%; in the series on hepatitis B virus (0.25 h, 15 min, read-out: Death of viruses (%) under exposure, Hepatitis B, 15 min), 75%; in the series on hepatitis B virus (0.5 h, 30 min, read-out: Death of viruses (%) under exposure, Hepatitis B, 30 min), 100%. The killing at 1 % was 100% in the series on hepatitis B virus (1 h, 60 min, read-out: Death of viruses (%) under exposure, Hepatitis B, 60 min); 20% in the series with poliomyelitis virus (10 min, 10 min, read-out: Death of viruses (%) under exposure, Poliomyelitis, 10 min); 50% with poliomyelitis virus (0.5 h, 30 min, read-out: Death of viruses (%) under exposure, Poliomyelitis, 30 min); 70% in the series with poliomyelitis virus (1 h, 60 min, read-out: Death of viruses (%) under exposure, Poliomyelitis, 60 min). Further, the solubility entry in series [1] was “soluble in water, alcohols, acetone, benzene, toluene”. Moreover, the “phytotoxic effects on the leaves of tomatoes and cucumbers” value in [3] is listed as “no phytotoxic effects”. Moreover, in the series on domestic flies [4], the “Death of flies, % Tests laboratory” value is 100%. Besides, the “Death of flies, % Tests large-scale” value in the series on domestic flies [5] stood at 100%. In addition, in the series with tomato nematodes, the mortality at 1 % is 100%. The killing at 2 % was 68.1% with pig ascarid ovigerms (setting [6]); 93.4% with pig ascarid ovigerms (setting [7]); 100% in the series on pig ascarid ovigerms (72 h, read-out: Death of ascarid ovigerms (%) in 72 h).
`CNC(=S)S` [carbathion, sodium N-methyldithiocarbamate dihydrate]: the killing at 3 % in the series on pig ascaride ovigerms worked out at 60%; in the series on helminthic ova, 59%. The values for the killing at 2 % in the series on pig ascarid ovigerms (setting [6]) and in the series on pig ascarid ovigerms (setting [7]) were 60% and 80%, respectively.
`COP(=O)(OC)OC=C(Cl)Cl` [Known nematocidal preparation, 0,0-dimethyl-0-/2,2-dichlorovinyl/phosphate]: the killing at 1 % in series [2] was determined as 88.1%. Besides, in the series on tomato nematodes, the mortality at 1 % was 76%.
In the case of `O=C(N[C@H](COP(=NC(=O)C(Cl)(Cl)Cl)(OC[C@@H](NC(=O)C(Cl)Cl)[C@H](O)c1ccc([N+](=O)[O-])cc1)OC[C@@H](NC(=O)C(Cl)Cl)[C@H](O)c1ccc([N+](=O)[O-])cc1)[C@H](O)c1ccc([N+](=O)[O-])cc1)C(Cl)Cl` [Example 7, d(-)--threo-3-para-nitrophenyl-2-dichloroacetamido-3-hydroxypro-poxyphosphazotrichloroacetyl], the solubility entry in series [1] was “soluble.in water, alcohols, acetone,--benzene, toluene”. Further, the killing at 3 % was 100% with pig ascaride ovigerms and 98% in the series on helminthic ova.
Consider “0,0-dimethyl(1-hydroxy-2,2,2-trichloroethyl) phosphonate [Known insecticidal composition]”, for which the LDSO in the series on mice and rats was 225 to 1200 mg/kg. The “Death of flies, % Tests laboratory” value in the series with domestic flies [4] is 85%. Moreover, the “Death of flies, % Tests large-scale” value with domestic flies [5] is 83%.

(Values after EP0407582A1, “DERIVATIVES OF TRICHLOROPHOSPHAS[…] INSECTICIDAL, VIRICIDAL, HEMATOCIDAL, FUNGICIDAL AND OVOCIDAL PREPARATIONS BASED ON THEM” (priority 1989, dated 1990).)
